Reference: patent publication US4600721A, “Pharmaceutical preparation” (Ludwig Heumann & Co., GmbH, priority 1984, dated 1986)

Legend:
[1] = tested on: lipoxygenase and cyclooxygenase; details: known inhibitors, statement in words; cited from earlier work
[2] = tested on: leucocyte migration; test: Leucocyte migration test (carrageenin-soaked polyester sponges); assay type: in vivo, rat; details: male rats, 24 hours
Protocol: Polyester sponges soaked in 2% carrageenin solution were implanted subcutaneously in the neck region of male rats (140-150 g) (see G. A. Higgs et al, Eur. J. Pharmacol. 66, 81 (1980), A. W. Ford-Hutchinson et al, J.Pharmacol. Methods 1, 3 (1978)). The sponges were removed after 24 hours. The leucocytes which had migrated in were washed out with a PBS solution (pH 7.4, 0.5% trypsin, 10 units/ml of heparin) for 30 minutes at 37° C. The sponges were then carefully squeezed and centrifuged (15 minutes, 500 revs/min). The leucocytes in the washing liquid were then counted. The test substances which had been taken up in 1% tylose and the vehicle (1% tylose) were administered intragastrally with a stomach tube immediately after implantation of the sponge and then after 5 hours and after 21 hours. The percentage inhibition of leucocyte migration after administration of the test substances was determined by comparison with the controls. The average inhibitory doses (ED50) were calculated from the regression graphs.

[3] = tested on: PGE 2 synthesis and release; test: Inhibition of PGE 2 synthesis and release in vitro; assay type: cell-based
[4] = tested on: Acute inflammatory oedema of the paws; test: Rat paw oedema test (carrageenin); assay type: in vivo; details: po, i.g., 1 hour after carrageenin injection, inhibition of increase in paw volume, male rats
Protocol: Acute inflammatory oedema of the paws was induced in male rats (100-120 g) by subplantar injection of 0.1 ml of 2% carrageenin (dissolved in aqueous 0.9% NaCl solution). The volume of the paws was measured with a paw volume measuring instrument 1 hour and 4 hours after the carrageenin injection. The differences in paw volume between the two measurements was calculated. The test substances were suspended in 1% tylose and administered intragastrally through a stomach tube one hour after the carrageenin injection.
The controls were given vehicle alone (1% tylose). The percentage inhibition of increase in volume in the treated animals was obtained from a comparison with the untreated controls. The average inhibitory doses (ED50) were calculated on the basis of the regression graphs.

[5] = tested on: LTC 4 synthesis and release; test: Inhibition of LTC 4 synthesis and release in vitro; assay type: cell-based

| Structure (SMILES) | selective inhibitory action on lipoxygenase or inhibition of both lipoxygenase and cyclooxygenase [1] | Inhibition of leucocyte migration (control = 0%) ([2]; 40 mg/kg i.g.) [%] | PGE 2 (% of controls) ([3]; at 10^-4) | PGE 2 (% of controls) ([3]; at 10^-5) | PGE 2 (% of controls) ([3]; at 10^-6) | ED50 [4] [mg/kg] | LTC 4 (% of controls) ([5]; at 10^-5) | LTC 4 (% of controls) ([5]; at 10^-6) | Inhibition of leucocyte migration (control = 0%) ([2]; 50 mg/kg i.g.) [%] | LTC 4 (% of controls) ([5]; at 10^-4) |
| --- | --- | --- | --- | --- | --- | --- | --- | --- | --- | --- |
| CC(C(=O)O)c1ccc2oc(-c3ccc(Cl)cc3)nc2c1 (centres unmarked) [Benoxaprofene] | known inhibitors of this kind | – | – | – | – | – | – | – | – | – |
| CC=NNc1nc2ccccc2s1 [Example 1, N-(benzothiazol-2-yl)-acetaldehyde hydrazone] | – | 50 | 12 % of controls | 38 % of controls | 89 % of controls | 15 | > 100 % of controls | > 100 % of controls | – | – |
| CC(C)=NNc1nc2ccccc2s1 [Example 2, N-(benzothiazol-2-yl)-acetone hydrazone] | – | – | 20 % of controls | 43 % of controls | 103 % of controls | 10 | 41 % of controls | 89 % of controls | 34 | 16 % of controls |
| CCC=NNc1nc2ccccc2s1 [Example 3, N-(benzothiazol-2-yl)-propionaldehyde hydrazone] | – | – | 8 % of controls | 37 % of controls | 61 % of controls | 20 | > 100 % of controls | > 100 % of controls | – | 24 % of controls |
| CCC(C)=NNc1nc2ccccc2s1 [Example 4, N-(benzothiazol-2-yl)-methyl ethyl ketone hydrazone] | – | – | – | – | – | 10 | – | – | – | – |
| CC=NNc1nc2ccccc2o1 [Example 5, N-(benzoxazol-2-yl)-acetaldehyde hydrazone] | – | – | – | – | – | 20 | – | – | – | – |
| CC(C)=NNc1nc2ccccc2o1 [Example 6, N-(benzoxazol-2-yl)-acetone hydrazone] | – | – | – | – | – | 10 | – | – | – | – |
| CCC=NNc1nc2ccccc2o1 [Example 7, N-(benzoxazol-2-yl)-propionaldehyde hydrazone] | – | – | – | – | – | 20 | – | – | – | – |
| O=CNNc1nc2ccccc2s1 [Example 8, benzothiazol-2-one-(β-formyl hydrazone)] | – | – | 82 % of controls | 112 % of controls | 105 % of controls | 14 | 70 % of controls | > 100 % of controls | 67 | 11 % of controls |
